Test results published in PMC6347765, “Streamlined SMFA and mosquito dark-feeding regime significantly improve malaria transmission-blocking assay robustness and sensitivity” (Malaria Journal, 2019).

Assays:
[1] = tested on: P. falciparum NF54 in An. coluzzii; experiment: Standard membrane feeding assay (SMFA) with AMPs added to gametocytaemic blood mix; oocyst counts in mosquito midguts; type: in vivo, Plasmodium falciparum; settings: AMP at 50 μM final concentration in gametocytaemic blood mix fed to An. coluzzii; vs PBS-treated control; oocysts counted seven days post-infection; P < 0.001; Fig. 4a
Description: The An. coluzzii N’gousso strain colonized from field-collected mosquitoes of the An. gambiae M molecular form in 2006 in Yaoundé, Cameroon, and the P. falciparum NF54 strain (MRA-1000, patient E) obtained from the MR4 were used for all the experiments reported in this paper. Mosquitoes were reared and maintained at standard insectary conditions (27 ± 1 °C and 70 ± 5%) humidity on a 12:12 light/dark (L:D) cycle: 11.5 h full light of ~ 300 lx starting at 6 am and 11.5 h darkness starting at 6 p.m., separated by 0.5 h dawn and dusk transitions, respectively. All mosquito infection experiments took place between 2 and 4 p.m.
Day 16/17. Gametocyte feeding A 14/15-day old gametocyte culture is used for mosquito infections. Three hours before gametocyte feed, the fructose-soaked cotton ball is removed from the cups to starve the mosquitoes, and mosquito cups are placed in the dark inside a second container for biosafety reasons. The container is placed in an incubator set at standard insectary conditions described above.
One hour before feeding heat-inactivated human serum (56 °C for 30 min) is defrosted at RT and placed on heat block at 37 °C. […]
The gametocyte culture is hand-swirled and placed on 37 °C heat block. […] The number of exflagellation centres formed in the 4 × 4 grid is determined under the microscope (10× objective). […]

[2] = tested on: different Plasmodium species; settings: injection into anopheline mosquitoes previously infected with different Plasmodium species; cited from earlier work
Source text: (§1) AMPs from various sources with different levels of plasmodicidal activities have been previously discovered. […] Both AMPs were previously shown to induce parasite killing.

P. falciparum = settings: mixed with gametocytic blood; An. coluzzii; no reference printed in this sentence (preceding sentence ref 34); cited from earlier work
Source text: as §1

P. berghei = settings: in both An. coluzzii and Anopheles stephensi; cited from earlier work
Source text: as §1

P. berghei ookinetes = settings: 50 μM concentration; in vitro produced P. berghei ookinetes; cited from earlier work
Source text: as §1

In the case of magainin, the “transmission-blocking activity (oocyst infection intensity) compared to control” value [1] is given as “significant transmission-blocking activity” and the “effect on parasite sporogony” value [2] is given as “completely block parasite sporogony”.

For melittin, the “transmission-blocking activity (oocyst infection intensity) compared to control” value [1] is listed as “significant transmission-blocking activity”, the “P. falciparum oocyst prevalence and intensity” value (P. falciparum) is listed as “reduce P. falciparum oocyst prevalence and intensity” and the “infection prevalence and intensity” value (P. berghei) is listed as “significant decrease in infection prevalence and intensity”. For the same substance, the killing of ookinetes (P. berghei ookinetes) was “kill”.
